Test results reported in patent publication US9895314B2, “Delayed release pharmaceutical formulation containing porous carrier particles for colon targeting” (Tillotts Pharma AG, priority 2014, dated 2018).

Assay: Accelerated stability study, compatibility of MBZ and FCC (HPLC-UV)
Assay type: physicochemical
Conditions: drug loaded FCC with 20 and 50% drug content, 25° C., 40° C. and 60° C., 25 days
Description: The compatibility of MBZ and FCC was investigated by an accelerated stability study. Drug loaded FCC particles with 20 and 50% drug content were stored at 25° C., 40° C. and 60° C. over a period of 25 days. On several days the MBZ content was analyzed by HPLC-UV.

Compound: Cc1ncc([N+](=O)[O-])n1CCOC(=O)c1ccccc1 [MBZ, metronidazole benzoate]
- degradation products from hydrolysis (metronidazole, benzoic acid) detected: not any degradation products
